Patent US9265253B2, “Use of macrocyclic picolinamides as fungicides” (DOW AGROSCIENCES LLC, priority 2013, dated 2016)
Like-named read-outs stand apart in the source and are kept apart here.

Columns and labels:
[1] = test system: Puccinia triticina; Synonym: Puccinia recondite f. Sp. Tritici; assay: Wheat Brown Rust (PUCCRT) disease control; type: in vivo; settings: Puccinia triticina, topical
Description: (§1) Technical grades of materials were dissolved in acetone, which were then mixed with nine volumes of water containing 110 ppm Triton X-100. The fungicide solutions were applied onto wheat seedlings using an automated booth sprayer to run-off. All sprayed plants were allowed to air dry prior to further handling. All fungicides were evaluated using the aforementioned method for their activity vs. all target diseases. Wheat leaf blotch and brown rust activity were also evaluated using track spray applications, in which case the fungicides were formulated as EC formulations, containing 0.1% Trycol 5941 in the spray solutions. Wheat plants (variety Yuma) were grown from seed in a greenhouse in 50% mineral soil/50% soil-less Metro mix until the first leaf was fully emerged, with 7-10 seedlings per pot. These plants were inoculated with an aqueous spore suspension of Septoria tritici either prior to or after fungicide treatments. After inoculation the plants were kept in 100% relative humidity (one day in a dark dew chamber followed by two to three days in a lighted dew chamber at 20° C.) to permit spores to germinate and infect the leaf. The plants were then transferred to a greenhouse set at 20° C. for disease to develop. When disease symptoms were fully expressed on the 1st leaves of untreated plants, infection levels were assessed on a scale of 0 to 100 percent disease severity. Percent disease control was calculated using the ratio of disease severity on treated plants relative to untreated plants. Wheat plants (variety Yuma) were grown from seed in a greenhouse in 50% mineral soil/50% soil-less Metro mix until the first leaf was fully emerged, with 7-10 seedlings per pot. These plants were inoculated with an aqueous spore suspension of Puccinia triticina either prior to or after fungicide treatments. After inoculation the plants were kept in a dark dew room at 22° C. with 100% relative humidity overnight to permit spores to germinate and infect the leaf. The plants were then transferred to a greenhouse set at 24° C. for disease to develop. Fungicide formulation, application and disease assessment followed the procedures as described in the Example A.

[2] = test system: Mycosphaerella graminicola; Anamorph: Septoria tritici; assay: Leaf Blotch of Wheat (SEPTTR) disease control; type: in vivo; settings: Zymoseptoria tritici
Description: as §1, with “plants.” for “plants. Wheat plants (variety Yuma) were grown from seed in a greenhouse in 50% mineral soil/50% soil-less Metro mix until the first leaf was fully emerged, with 7-10 seedlings per pot. These plants were inoculated with an aqueous spore suspension of Puccinia triticina either prior to or after fungicide treatments. After inoculation the plants were kept in a dark dew room at 22° C. with 100% relative humidity overnight to permit spores to germinate and infect the leaf. The plants were then transferred to a greenhouse set at 24° C. for disease to develop. Fungicide formulation, application and disease assessment followed the procedures as described in the Example A.”

[3] = 24 h, 1 Day Protectant, rate 100 ppm, read-out: PUCCRT 1 DP disease control
[4] = 24 h, 1 Day Protectant, rate 121.5 g/H, read-out: PUCCRT 1 DP disease control
[5] = 72 h, 3 Day Curative, rate 100 ppm, read-out: PUCCRT 3 DC disease control
[6] = 72 h, 3 Day Curative, rate 121.5 g/H, read-out: PUCCRT 3 DC disease control
[7] = 24 h, 1 Day Protectant, rate 100 ppm, read-out: SEPTTR 1 DP disease control
[8] = 24 h, 1 Day Protectant, rate 121.5 g/H, read-out: SEPTTR 1 DP disease control
[9] = 72 h, 3 Day Curative, rate 100 ppm, read-out: SEPTTR 3 DC disease control
[10] = 72 h, 3 Day Curative, rate 121.5 g/H, read-out: SEPTTR 3 DC disease control
[11] = 24 h, Wheat Brown Rust, 1 Day Protectant, rate 121.5 g/H (low volume application), read-out: Disease control PUCCRT 1 DP
[12] = 72 h, Wheat Brown Rust, 3 Day Curative, rate 121.5 g/H (low volume application), read-out: Disease control PUCCRT 3 DC
[13] = 24 h, Wheat Leaf Blotch, 1 Day Protectant, rate 121.5 g/H (low volume application), read-out: Disease control SEPTTR 1 DP
[14] = 72 h, Wheat Leaf Blotch, 3 Day Curative, rate 121.5 g/H (low volume application), read-out: Disease control SEPTTR 3 DC
[15] = 24 h, Wheat Brown Rust, 1 Day Protectant, rate 100 ppm (high volume application), read-out: Disease control PUCCRT 1 DP
[16] = 72 h, Wheat Brown Rust, 3 Day Curative, rate 100 ppm (high volume application), read-out: Disease control PUCCRT 3 DC

SMILES | pest or weed control at 100 ppm [1, 3] [%] | pest or weed control at 121.5 g/ha [1, 4] [%] | pest or weed control at 100 ppm [1, 5] [%] | pest or weed control at 121.5 g/ha [1, 6] [%] | pest or weed control at 100 ppm [2, 7] [%] | pest or weed control at 121.5 g/ha [2, 8] [%] | pest or weed control at 100 ppm [2, 9] [%] | pest or weed control at 121.5 g/ha [2, 10] [%] | further results
COc1ccnc(C(=O)N[C@H]2CCC[C@H](CC3CCCC3)[C@@H](OCC3CC3)[C@H](C)OC2=O)c1OCOC(=O)C(C)C [Compound F154, ((2-(((3S,7R,8R,9S)-7-(cyclopentylmethyl)-8-(cyclopropylmethoxy)-9-methyl-2-oxooxonan-3-yl)carbamoyl)-4-methoxypyridin-3-yl)oxy)methyl isobutyrate] | 80 to 100 | 80 to 100 | 80 to 100 | 80 to 100 | 80 to 100 | 80 to 100 | 80 to 100 | 80 to 100 | 
COc1ccnc(C(=O)N[C@H]2CCC[C@H](CCC(C)C)[C@@H](OCCCC(F)(F)F)[C@H](C)OC2=O)c1OCOC(=O)C(C)C [Compound F150] | 80 to 100 | 80 to 100 | 80 to 100 | 0 to 80 | 80 to 100 | 80 to 100 | 80 to 100 | 80 to 100 | 
COc1ccnc(C(=O)N[C@H]2CCC[C@H](CCC(C)C)[C@@H](Oc3ccccc3)[C@H](C)OC2=O)c1OC(C)=O [Compound F62] | 80 to 100 | 80 to 100 | 80 to 100 | 0 to 80 | 80 to 100 | 80 to 100 | 80 to 100 | 80 to 100 | 
CCO[C@@H]1[C@@H](Cc2ccccc2)CCC[C@H](NC(=O)c2nccc(OC)c2OC(=O)CCOC)C(=O)O[C@H]1C [Compound F197] |  |  |  |  |  |  |  |  | pest or weed control at 121.5 g/ha [1, 11]: 80 to 100%; pest or weed control at 121.5 g/ha [1, 12]: 80 to 100%; pest or weed control at 121.5 g/ha [2, 13]: 80 to 100%; pest or weed control at 121.5 g/ha [2, 14]: 80 to 100%
COc1ccnc(C(=O)N[C@H]2CCC[C@H](CCOc3ccccc3)[C@@H](Oc3ccccc3)[C@H](C)OC2=O)c1OCOC(C)=O [Compound F129] | 80 to 100 | 80 to 100 | 80 to 100 | 0 to 80 | 80 to 100 | 80 to 100 | 80 to 100 | 80 to 100 | 
COc1ccnc(C(=O)N[C@H]2CCC[C@H](CCF)[C@@H](OCC(C)C)[C@H](C)OC2=O)c1O [Compound F43] | 80 to 100 |  | 80 to 100 |  | 80 to 100 |  | 80 to 100 |  | 
COCCO[C@@H]1[C@@H](Cc2ccccc2)CCC[C@H](NC(=O)c2nccc(OC)c2OCOC(C)=O)C(=O)O[C@H]1C [Compound F112] |  | 80 to 100 |  | 80 to 100 |  | 80 to 100 |  | 80 to 100 | 
COc1ccnc(C(=O)N[C@H]2CCC[C@H](CCC(C)C)[C@@H](OCC(C)C)[C@H](C)OC2=O)c1OCOC(=O)C(C)C [Compound F148] | 80 to 100 | 80 to 100 | 80 to 100 | 80 to 100 | 80 to 100 | 80 to 100 | 80 to 100 | 80 to 100 | 
COc1ccnc(C(=O)N[C@H]2CCC[C@H](CCC(C)C)[C@@H](OCC(C)C)[C@H](C)OC2=O)c1O [Compound F2] | 80 to 100 |  | 0 to 80 |  | 80 to 100 |  | 80 to 100 |  | 
COc1ccnc(C(=O)N[C@H]2CCC[C@H](CCOCC3CC3)[C@@H](OCC3CC3)[C@H](C)OC2=O)c1OC(=O)C1CC1 [Compound F196] |  |  |  |  |  |  |  |  | pest or weed control at 100 ppm [1, 15]: 80 to 100%; pest or weed control at 121.5 g/ha [1, 11]: 80 to 100%; pest or weed control at 100 ppm [1, 16]: 80 to 100%; pest or weed control at 121.5 g/ha [1, 12]: 80 to 100%; pest or weed control at 100 ppm ([2]; 24 h, Wheat Leaf Blotch, 1 Day Protectant, rate 100 ppm (high volume application), read-out: Disease control SEPTTR 1 DP): 80 to 100%; pest or weed control at 121.5 g/ha [2, 13]: 0 to 80%; pest or weed control at 100 ppm ([2]; 72 h, Wheat Leaf Blotch, 3 Day Curative, rate 100 ppm (high volume application), read-out: Disease control SEPTTR 3 DC): 0 to 80%; pest or weed control at 121.5 g/ha [2, 14]: 0 to 80%
CC[C@H]1CCC[C@H](NC(=O)c2nccc(OC)c2O)C(=O)O[C@@H](C)[C@@H]1Oc1ccccc1 [Compound F51] | 80 to 100 |  | 0 to 80 |  | 80 to 100 |  | 0 to 80 |  | 
COc1ccnc(C(=O)N[C@H]2CCC[C@H](CCC(C)C)[C@@H](OCCCC(F)(F)F)[C@H](C)OC2=O)c1O [Compound F5] | 80 to 100 |  | 0 to 80 |  | 80 to 100 |  | 80 to 100 |  | 
COCCO[C@@H]1[C@@H](Cc2ccccc2)CCC[C@H](NC(=O)c2nccc(OC)c2O)C(=O)O[C@H]1C [Compound F24] | 80 to 100 |  | 80 to 100 |  | 80 to 100 |  | 80 to 100 |  | 
COc1ccnc(C(=O)N[C@H]2CCC[C@H](CCC(C)C)[C@@H](OCCCC(F)(F)F)[C@H](C)OC2=O)c1OC(C)=O [Compound F65] | 80 to 100 | 80 to 100 | 80 to 100 | 0 to 80 | 80 to 100 | 80 to 100 | 80 to 100 | 80 to 100 | 
COc1ccnc(C(=O)N[C@H]2CCC[C@H](CCOCC3CC3)[C@@H](OCC3CC3)[C@H](C)OC2=O)c1O [Compound F54] | 80 to 100 |  | 80 to 100 |  | 0 to 80 |  | 80 to 100 |  | 
CCOCC(=O)Oc1c(OC)ccnc1C(=O)N[C@H]1CCC[C@H](CCF)[C@@H](OCC(C)C)[C@H](C)OC1=O [Compound F184] | 80 to 100 |  | 80 to 100 |  | 80 to 100 |  | 80 to 100 |  | 
CCOCC(=O)OCOc1c(OC)ccnc1C(=O)N[C@H]1CCC[C@@H]2CCO[C@H]2[C@H](C)OC1=O [Compound F192] |  |  |  |  |  |  |  |  | pest or weed control at 100 ppm [1, 15]: 80 to 100%; pest or weed control at 121.5 g/ha [1, 11]: 80 to 100%; pest or weed control at 100 ppm [1, 16]: 80 to 100%; pest or weed control at 121.5 g/ha [1, 12]: 80 to 100%
COc1ccnc(C(=O)N[C@H]2CCC[C@@H]3CCO[C@H]3[C@H](C)OC2=O)c1O [Compound F58] | 80 to 100 |  | 80 to 100 |  |  |  |  |  | 
